Legend:
[1] = biological target: Gamma-aminobutyric acid receptor subunit alpha-1/alpha-2/beta-2/gamma-2 (Homo sapiens, UniProt P14867+P18507+P47869+P47870); type: functional, cell-based
[2] = biological target: Beta-3 adrenergic receptor (Homo sapiens, UniProt P13945)
[3] = biological target: Voltage-dependent N-type calcium channel subunit alpha-1B (Rattus norvegicus, UniProt Q02294); type: functional
Progesterone receptor = biological target: T1, Progesterone receptor (Homo sapiens, UniProt P06401)
T1 sequence (P06401 whole entry): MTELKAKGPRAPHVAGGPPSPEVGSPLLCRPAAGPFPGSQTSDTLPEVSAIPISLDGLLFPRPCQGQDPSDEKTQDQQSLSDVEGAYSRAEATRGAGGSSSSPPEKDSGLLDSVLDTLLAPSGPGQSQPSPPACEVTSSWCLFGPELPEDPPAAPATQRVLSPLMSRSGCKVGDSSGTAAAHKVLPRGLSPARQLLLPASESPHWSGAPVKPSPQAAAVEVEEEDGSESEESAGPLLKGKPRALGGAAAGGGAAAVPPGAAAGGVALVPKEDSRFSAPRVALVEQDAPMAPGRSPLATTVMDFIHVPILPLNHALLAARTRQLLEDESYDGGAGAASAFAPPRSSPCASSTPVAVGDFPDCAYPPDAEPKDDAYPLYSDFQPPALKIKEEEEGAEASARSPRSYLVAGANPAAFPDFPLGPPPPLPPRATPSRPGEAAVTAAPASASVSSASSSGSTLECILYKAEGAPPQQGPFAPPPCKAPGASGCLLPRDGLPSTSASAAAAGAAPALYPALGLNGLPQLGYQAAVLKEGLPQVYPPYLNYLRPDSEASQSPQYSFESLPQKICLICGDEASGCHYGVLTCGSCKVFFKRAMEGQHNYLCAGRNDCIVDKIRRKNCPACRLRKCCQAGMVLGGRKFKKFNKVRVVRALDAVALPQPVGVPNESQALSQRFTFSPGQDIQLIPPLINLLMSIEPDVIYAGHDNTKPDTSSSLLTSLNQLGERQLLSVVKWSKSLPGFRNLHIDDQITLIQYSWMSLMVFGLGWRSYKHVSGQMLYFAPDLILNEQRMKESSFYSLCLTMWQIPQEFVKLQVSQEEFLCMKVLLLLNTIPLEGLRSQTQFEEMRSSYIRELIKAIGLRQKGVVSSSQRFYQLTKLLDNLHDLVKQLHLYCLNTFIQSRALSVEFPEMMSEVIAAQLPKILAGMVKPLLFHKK

[4] = biological target: T2, Alpha-2A adrenergic receptor (Homo sapiens, UniProt P08913)
T2 sequence (P08913 whole entry): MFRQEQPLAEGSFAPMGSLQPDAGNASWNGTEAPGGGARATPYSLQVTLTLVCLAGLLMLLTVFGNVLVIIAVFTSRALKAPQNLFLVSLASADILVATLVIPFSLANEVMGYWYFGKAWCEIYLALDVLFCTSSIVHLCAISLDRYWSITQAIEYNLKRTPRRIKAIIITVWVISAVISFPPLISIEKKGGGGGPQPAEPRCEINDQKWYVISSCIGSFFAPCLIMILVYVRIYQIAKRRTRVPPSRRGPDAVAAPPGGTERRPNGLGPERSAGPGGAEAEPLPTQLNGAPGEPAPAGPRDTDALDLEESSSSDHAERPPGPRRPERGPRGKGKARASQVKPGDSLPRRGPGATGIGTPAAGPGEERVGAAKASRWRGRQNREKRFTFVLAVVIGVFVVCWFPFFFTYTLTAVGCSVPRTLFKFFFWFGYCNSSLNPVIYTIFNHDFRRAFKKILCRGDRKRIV

Androgen receptor [5] = biological target: T3, Androgen receptor (Rattus norvegicus, UniProt P15207); type: functional
T3 sequence (P15207 whole entry): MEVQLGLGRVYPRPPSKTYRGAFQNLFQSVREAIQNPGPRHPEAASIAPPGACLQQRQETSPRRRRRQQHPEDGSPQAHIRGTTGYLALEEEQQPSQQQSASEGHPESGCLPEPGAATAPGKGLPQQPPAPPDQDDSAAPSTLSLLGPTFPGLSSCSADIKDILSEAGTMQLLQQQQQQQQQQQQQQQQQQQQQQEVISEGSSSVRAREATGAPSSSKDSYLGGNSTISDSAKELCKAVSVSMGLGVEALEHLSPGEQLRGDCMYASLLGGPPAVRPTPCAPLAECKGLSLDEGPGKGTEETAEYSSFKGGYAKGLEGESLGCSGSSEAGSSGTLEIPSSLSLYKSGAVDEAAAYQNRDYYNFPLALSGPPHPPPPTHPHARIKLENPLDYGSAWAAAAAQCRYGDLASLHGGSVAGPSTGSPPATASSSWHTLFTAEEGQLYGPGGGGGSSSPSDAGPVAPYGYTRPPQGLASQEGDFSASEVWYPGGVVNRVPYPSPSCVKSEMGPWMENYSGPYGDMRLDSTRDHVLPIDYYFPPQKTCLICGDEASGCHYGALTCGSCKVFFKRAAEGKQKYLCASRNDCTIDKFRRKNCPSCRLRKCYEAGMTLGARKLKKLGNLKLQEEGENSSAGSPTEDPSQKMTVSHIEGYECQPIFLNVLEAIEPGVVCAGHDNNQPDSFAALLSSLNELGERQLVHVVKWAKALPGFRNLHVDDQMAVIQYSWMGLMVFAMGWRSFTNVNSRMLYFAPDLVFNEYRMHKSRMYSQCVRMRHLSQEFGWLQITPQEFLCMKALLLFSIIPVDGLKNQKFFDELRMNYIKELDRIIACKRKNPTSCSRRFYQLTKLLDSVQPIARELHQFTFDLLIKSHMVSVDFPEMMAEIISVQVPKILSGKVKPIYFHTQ

Androgen receptor [6] = biological target: T3, Androgen receptor
Further: assay procedure not described here.

Gamma-aminobutyric acid receptor subunit alpha-1/alpha-2/beta-2/gamma-2, sequence (P14867 whole entry): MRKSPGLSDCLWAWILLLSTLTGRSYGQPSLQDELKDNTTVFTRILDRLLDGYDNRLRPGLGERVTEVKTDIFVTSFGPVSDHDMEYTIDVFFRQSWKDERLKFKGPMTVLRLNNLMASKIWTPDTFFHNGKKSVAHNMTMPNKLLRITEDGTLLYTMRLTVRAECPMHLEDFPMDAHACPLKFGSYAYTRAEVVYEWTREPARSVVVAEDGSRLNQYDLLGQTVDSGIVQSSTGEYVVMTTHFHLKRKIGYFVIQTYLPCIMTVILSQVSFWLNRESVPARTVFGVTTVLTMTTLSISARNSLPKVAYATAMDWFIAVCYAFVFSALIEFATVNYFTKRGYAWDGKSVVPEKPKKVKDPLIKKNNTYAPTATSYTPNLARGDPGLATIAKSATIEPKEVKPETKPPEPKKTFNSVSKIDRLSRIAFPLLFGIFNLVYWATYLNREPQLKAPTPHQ
Gamma-aminobutyric acid receptor subunit alpha-1/alpha-2/beta-2/gamma-2, sequence (P47870 whole entry): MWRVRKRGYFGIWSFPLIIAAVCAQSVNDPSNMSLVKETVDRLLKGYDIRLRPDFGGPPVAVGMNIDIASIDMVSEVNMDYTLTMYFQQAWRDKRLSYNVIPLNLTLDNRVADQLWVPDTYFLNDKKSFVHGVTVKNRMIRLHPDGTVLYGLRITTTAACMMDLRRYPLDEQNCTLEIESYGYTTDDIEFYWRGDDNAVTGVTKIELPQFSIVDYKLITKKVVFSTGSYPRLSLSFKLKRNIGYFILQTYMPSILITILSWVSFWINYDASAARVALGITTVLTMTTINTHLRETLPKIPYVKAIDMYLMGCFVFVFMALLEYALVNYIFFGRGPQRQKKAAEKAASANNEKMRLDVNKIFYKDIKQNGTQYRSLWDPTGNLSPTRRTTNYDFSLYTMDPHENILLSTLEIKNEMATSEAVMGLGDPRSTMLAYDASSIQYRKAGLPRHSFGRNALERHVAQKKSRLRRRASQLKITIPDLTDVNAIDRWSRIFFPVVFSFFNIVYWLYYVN
Gamma-aminobutyric acid receptor subunit alpha-1/alpha-2/beta-2/gamma-2, sequence (P18507 whole entry): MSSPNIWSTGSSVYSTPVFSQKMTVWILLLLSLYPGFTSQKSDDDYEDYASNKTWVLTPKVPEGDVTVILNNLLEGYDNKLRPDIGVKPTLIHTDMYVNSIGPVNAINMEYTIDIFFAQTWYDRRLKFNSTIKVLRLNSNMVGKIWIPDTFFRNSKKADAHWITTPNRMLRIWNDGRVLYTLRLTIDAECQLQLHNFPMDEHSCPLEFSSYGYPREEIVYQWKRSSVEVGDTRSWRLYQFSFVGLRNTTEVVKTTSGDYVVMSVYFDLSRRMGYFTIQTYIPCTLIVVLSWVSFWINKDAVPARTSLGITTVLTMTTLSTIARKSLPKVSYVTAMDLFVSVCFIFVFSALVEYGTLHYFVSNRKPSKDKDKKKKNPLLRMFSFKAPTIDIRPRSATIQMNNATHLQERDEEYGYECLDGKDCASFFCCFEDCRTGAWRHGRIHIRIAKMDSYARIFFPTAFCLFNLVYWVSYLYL
Gamma-aminobutyric acid receptor subunit alpha-1/alpha-2/beta-2/gamma-2, sequence (P47869 whole entry): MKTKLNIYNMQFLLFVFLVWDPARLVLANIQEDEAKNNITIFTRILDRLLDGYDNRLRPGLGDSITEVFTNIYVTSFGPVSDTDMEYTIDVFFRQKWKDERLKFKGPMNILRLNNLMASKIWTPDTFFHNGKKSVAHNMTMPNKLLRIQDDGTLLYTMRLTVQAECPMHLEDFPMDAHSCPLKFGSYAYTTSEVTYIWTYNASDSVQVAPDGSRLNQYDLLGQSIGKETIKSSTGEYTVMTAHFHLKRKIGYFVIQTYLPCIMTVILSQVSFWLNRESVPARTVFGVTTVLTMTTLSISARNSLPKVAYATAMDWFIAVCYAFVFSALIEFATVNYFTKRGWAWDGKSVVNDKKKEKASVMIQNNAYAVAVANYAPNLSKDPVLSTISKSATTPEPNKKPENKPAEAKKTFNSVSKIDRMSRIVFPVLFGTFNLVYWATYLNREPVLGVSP
Beta-3 adrenergic receptor, sequence (P13945 whole entry): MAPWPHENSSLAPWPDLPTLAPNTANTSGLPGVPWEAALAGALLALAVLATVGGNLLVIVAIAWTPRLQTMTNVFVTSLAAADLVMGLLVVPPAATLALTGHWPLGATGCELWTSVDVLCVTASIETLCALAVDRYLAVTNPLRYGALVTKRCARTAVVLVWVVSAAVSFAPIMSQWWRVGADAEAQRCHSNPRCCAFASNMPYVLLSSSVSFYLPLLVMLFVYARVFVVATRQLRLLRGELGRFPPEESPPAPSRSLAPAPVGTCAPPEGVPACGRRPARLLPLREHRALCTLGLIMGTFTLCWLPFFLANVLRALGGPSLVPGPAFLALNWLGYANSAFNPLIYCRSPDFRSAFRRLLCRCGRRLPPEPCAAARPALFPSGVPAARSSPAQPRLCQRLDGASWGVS
Voltage-dependent N-type calcium channel subunit alpha-1B, sequence (Q02294 whole entry): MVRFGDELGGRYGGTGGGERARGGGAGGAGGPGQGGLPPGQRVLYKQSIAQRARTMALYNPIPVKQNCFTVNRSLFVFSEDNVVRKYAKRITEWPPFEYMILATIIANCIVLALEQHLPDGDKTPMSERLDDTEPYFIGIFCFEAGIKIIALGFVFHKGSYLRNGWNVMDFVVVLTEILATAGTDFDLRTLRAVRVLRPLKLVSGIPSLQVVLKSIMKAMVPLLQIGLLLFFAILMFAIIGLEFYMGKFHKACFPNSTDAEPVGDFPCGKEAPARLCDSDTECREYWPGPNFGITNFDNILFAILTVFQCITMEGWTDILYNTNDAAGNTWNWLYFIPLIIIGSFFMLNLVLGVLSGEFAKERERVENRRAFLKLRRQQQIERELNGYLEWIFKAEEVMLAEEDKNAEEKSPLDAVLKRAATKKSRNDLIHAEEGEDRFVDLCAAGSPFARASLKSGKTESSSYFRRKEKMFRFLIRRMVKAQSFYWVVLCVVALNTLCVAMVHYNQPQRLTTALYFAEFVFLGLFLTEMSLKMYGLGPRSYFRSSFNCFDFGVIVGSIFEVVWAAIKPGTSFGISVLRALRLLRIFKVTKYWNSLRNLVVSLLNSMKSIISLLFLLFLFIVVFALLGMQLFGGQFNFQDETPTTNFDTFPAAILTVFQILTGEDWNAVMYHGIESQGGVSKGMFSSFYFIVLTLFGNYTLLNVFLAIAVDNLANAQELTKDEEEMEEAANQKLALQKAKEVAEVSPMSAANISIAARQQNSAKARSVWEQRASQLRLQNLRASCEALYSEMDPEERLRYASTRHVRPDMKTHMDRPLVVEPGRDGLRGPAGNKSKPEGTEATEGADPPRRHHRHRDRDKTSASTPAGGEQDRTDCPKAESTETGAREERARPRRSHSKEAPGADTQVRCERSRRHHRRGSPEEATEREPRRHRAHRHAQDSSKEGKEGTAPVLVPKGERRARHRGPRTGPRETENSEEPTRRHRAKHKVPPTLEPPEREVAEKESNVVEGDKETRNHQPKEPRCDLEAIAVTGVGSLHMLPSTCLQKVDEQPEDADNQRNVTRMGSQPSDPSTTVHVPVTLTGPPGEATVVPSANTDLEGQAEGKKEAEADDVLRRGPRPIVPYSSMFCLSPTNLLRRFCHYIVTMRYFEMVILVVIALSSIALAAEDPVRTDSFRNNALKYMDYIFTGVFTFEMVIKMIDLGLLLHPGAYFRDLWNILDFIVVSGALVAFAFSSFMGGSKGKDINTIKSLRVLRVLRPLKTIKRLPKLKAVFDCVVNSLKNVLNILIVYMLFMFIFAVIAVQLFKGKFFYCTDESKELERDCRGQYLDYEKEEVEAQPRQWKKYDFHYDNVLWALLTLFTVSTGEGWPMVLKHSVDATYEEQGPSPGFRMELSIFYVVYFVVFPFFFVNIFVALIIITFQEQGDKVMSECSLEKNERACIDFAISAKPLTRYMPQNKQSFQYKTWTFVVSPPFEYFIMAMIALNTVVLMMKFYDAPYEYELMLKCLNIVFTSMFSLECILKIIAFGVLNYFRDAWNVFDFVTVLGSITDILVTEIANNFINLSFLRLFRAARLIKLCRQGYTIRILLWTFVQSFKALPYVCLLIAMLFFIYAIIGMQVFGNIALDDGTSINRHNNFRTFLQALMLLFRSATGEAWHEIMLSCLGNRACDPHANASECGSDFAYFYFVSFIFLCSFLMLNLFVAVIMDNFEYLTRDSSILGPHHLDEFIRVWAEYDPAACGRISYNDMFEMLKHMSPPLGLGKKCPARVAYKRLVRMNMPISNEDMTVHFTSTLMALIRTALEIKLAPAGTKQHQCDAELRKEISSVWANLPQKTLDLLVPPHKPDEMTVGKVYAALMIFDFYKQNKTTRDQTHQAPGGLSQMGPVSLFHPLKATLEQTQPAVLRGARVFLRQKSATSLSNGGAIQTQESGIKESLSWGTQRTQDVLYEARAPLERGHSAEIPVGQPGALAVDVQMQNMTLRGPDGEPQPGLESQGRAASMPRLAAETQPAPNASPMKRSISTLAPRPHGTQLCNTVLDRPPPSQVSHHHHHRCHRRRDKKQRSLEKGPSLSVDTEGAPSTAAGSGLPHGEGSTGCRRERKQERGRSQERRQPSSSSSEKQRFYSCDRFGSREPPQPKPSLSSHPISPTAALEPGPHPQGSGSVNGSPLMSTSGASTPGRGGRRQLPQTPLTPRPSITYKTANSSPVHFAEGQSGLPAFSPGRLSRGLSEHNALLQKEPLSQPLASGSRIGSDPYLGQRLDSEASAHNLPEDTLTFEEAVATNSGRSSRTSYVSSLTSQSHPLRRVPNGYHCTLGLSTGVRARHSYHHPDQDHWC

Cc1ccc2c(-c3ccccc3)nc(=O)n(C(C)C)c2c1 [PROQUAZONE]
AC50 [1]: > 30 µM

CN1CCN(c2c(F)cc3c(=O)c(C(=O)O)cn4c3c2SCC4)CC1 [RUFLOXACIN]
AC50 [1]: > 30 µM

CCN(CC)CCOC(=O)c1ccc(N)cc1Cl [CHLOROPROCAINE]
AC50 [1]: > 30 µM

[H]/N=C(/N)N[C@H]1[C@H](O)[C@@H](O)[C@H](O[C@@H]2O[C@@H](C)[C@](O)(C=O)[C@H]2O[C@@H]2O[C@@H](CO)[C@H](O)[C@@H](O)[C@@H]2NC)[C@@H](N/C(N)=N\[H])[C@@H]1O [STREPTOMYCIN]
AC50 [2]: > 30 µM
AC50 [3]: > 10 µM
AC50 (Progesterone receptor): > 30 µM
AC50 [4]: > 10 µM

CN1c2ccccc2C(NCCCCCCC(=O)O)c2ccc(Cl)cc2S1(=O)=O (centres undefined) [TIANEPTINE]
AC50 [1]: > 30 µM

COc1ccc(/C=C/C(=O)Nc2ccccc2C(=O)O)cc1OC
AC50 (Androgen receptor [5]): > 30 µM

Nc1nc2c(c(=O)[nH]1)N(C=O)C(CNc1ccc(C(=O)N[C@@H](CCC(=O)O)C(=O)O)cc1)CN2 (some centres undefined) [LEUCOVORIN]
AC50 (Androgen receptor [5]): > 30 µM

CC(C)OC(=O)C(C(=O)OC(C)C)=C1SC=CS1 [MALOTILATE]
AC50 (Androgen receptor [5]): > 30 µM

Cc1ccc(=O)n(-c2ccccc2)c1 [PIRFENIDONE]
AC50 [1]: > 30 µM

CCCCCCOC(=O)CCC(=O)CN [HEXAMINOLEVULINATE]
AC50 (Androgen receptor [5]): > 30 µM

O=C(O)c1ccccc1Nc1cccc(C(F)(F)F)c1 [FLUFENAMIC ACID]
AC50 [2]: > 30 µM
AC50 (Androgen receptor [6]): > 30 µM
AC50 [3]: > 10 µM
AC50 (Progesterone receptor): > 30 µM

COC(=O)N[C@@H](C)CNc1nccc(-c2cn(C(C)C)nc2-c2cc(Cl)cc(NS(C)(=O)=O)c2F)n1 [ENCORAFENIB]
AC50 (Androgen receptor [5]): > 30 µM

COc1ccc(C(CN(C)C)C2(O)CCCCC2)cc1 (centres undefined) [VENLAFAXINE]
AC50 [3]: > 10 µM
AC50 (Progesterone receptor): > 30 µM
AC50 [4]: > 10 µM

CCCC[C@H](C)C[C@H](O)/C=C/[C@H]1[C@H](O)CC(=O)[C@@H]1CCCC/C=C/C(=O)O [LIMAPROST]
AC50 [1]: > 30 µM

Clc1ccc2c(c1)C(c1ccccc1)=NCc1nncn1-2 [ESTAZOLAM]
AC50 (Androgen receptor [6]): > 30 µM
AC50 (Progesterone receptor): > 30 µM

N[C@H](Cc1cc(I)c(Oc2cc(I)c(O)c(I)c2)c(I)c1)C(=O)O [DEXTROTHYROXINE]
AC50 [2]: > 30 µM
AC50 [3]: > 10 µM
AC50 (Progesterone receptor): > 30 µM
AC50 [4]: > 10 µM

Nc1nc(F)nc2c1ncn2[C@@H]1O[C@H](COP(=O)(O)O)[C@@H](O)[C@@H]1O [FLUDARABINE PHOSPHATE]
AC50 (Androgen receptor [6]): > 30 µM

N#Cc1ccccc1-c1cc(-c2ccccn2)cn(-c2ccccc2)c1=O
AC50 (Androgen receptor [5]): > 30 µM

CCOC(=O)Nc1ccc2c(c1)N(C(=O)CCN1CCOCC1)c1ccccc1S2 [MORICIZINE]
AC50 (Androgen receptor [5]): > 30 µM
AC50 [1]: > 30 µM

N#C[C@@H]1CCCN1C(=O)CNC12CC3CC(CC(O)(C3)C1)C2 [VILDAGLIPTIN]
AC50 (Androgen receptor [6]): > 30 µM
AC50 [3]: > 10 µM
AC50 (Progesterone receptor): > 30 µM
AC50 [4]: > 10 µM

NCCCC(O)(P(=O)(O)O)P(=O)(O)O [ALENDRONIC ACID]
AC50 [2]: > 30 µM
AC50 [3]: > 10 µM
AC50 (Progesterone receptor): > 30 µM
AC50 [4]: > 10 µM

CC(C)CC(N(C)C)C1(c2ccc(Cl)cc2)CCC1 (centres undefined) [SIBUTRAMINE]
AC50 [2]: > 30 µM
AC50 [3]: > 10 µM
AC50 (Progesterone receptor): > 30 µM
AC50 [4]: > 10 µM

CCCCC1(CC)C(=O)NC(=O)NC1=O [BUTETHAL]
AC50 (Androgen receptor [5]): > 30 µM
AC50 [1]: > 30 µM

CCC(C)(Oc1ccc(C2(c3ccc(OC(C)(CC)C(=O)O)cc3)CCCCC2)cc1)C(=O)O (centres undefined) [CLINOFIBRATE]
AC50 (Androgen receptor [5]): > 30 µM

COc1cc2c(Nc3ccc(Br)cc3F)ncnc2cc1OCC1CCN(C)CC1 [VANDETANIB]
AC50 [1]: > 30 µM

CC(CCc1ccccc1)NC(C)C(O)c1ccc(O)cc1 (centres undefined) [NYLIDRIN]
AC50 [2]: > 30 µM
AC50 [3]: > 10 µM
AC50 (Progesterone receptor): > 30 µM
AC50 [4]: 9.39 µM

Cc1ccc(NC(=O)C2(c3ccc4c(c3)OC(F)(F)O4)CC2)nc1-c1cccc(C(=O)O)c1 [LUMACAFTOR]
AC50 [1]: > 30 µM

O=C(O)c1ccccc1OP(=O)(O)O [FOSFOSAL]
AC50 [1]: > 30 µM

CC#CCn1c(N2CCC[C@@H](N)C2)nc2c1c(=O)n(Cc1nc(C)c3ccccc3n1)c(=O)n2C [LINAGLIPTIN]
AC50 [2]: > 30 µM
AC50 (Androgen receptor [6]): > 30 µM
AC50 [3]: > 10 µM
AC50 (Progesterone receptor): > 30 µM
AC50 [4]: > 10 µM

O=C1Nc2ccc(Cl)cc2C(c2ccccc2)=NC1O (centres undefined) [OXAZEPAM]
AC50 [2]: > 30 µM
AC50 [3]: > 10 µM
AC50 (Progesterone receptor): > 30 µM
AC50 [4]: > 10 µM

COCCOC(=O)C1=C(C)NC(C)=C(C(=O)OC/C=C/c2ccccc2)C1c1cccc([N+](=O)[O-])c1 (centres undefined) [CILNIDIPINE]
AC50 [1]: > 30 µM

Nc1ccc(C(=O)O)c(O)c1 [AMINOSALICYLIC ACID]
AC50 (Androgen receptor [5]): > 30 µM

CCCCC[C@H](O)/C=C/[C@H]1[C@H](O)CC(=O)[C@@H]1C/C=C\CCCC(=O)O [DINOPROSTONE]
AC50 (Androgen receptor [5]): 23 µM

CCN(CC)CC(=O)Oc1ccc(NC(C)=O)cc1 [PROPACETAMOL]
AC50 (Androgen receptor [5]): > 30 µM

NC(=O)CCC/N=C(\c1ccc(Cl)cc1)c1cc(F)ccc1O [PROGABIDE]
AC50 (Androgen receptor [6]): > 10 µM

CCCC(C)(COC(N)=O)COC(=O)NC(C)C (centres undefined) [CARISOPRODOL]
AC50 [2]: > 30 µM
AC50 [3]: > 10 µM
AC50 (Progesterone receptor): > 30 µM
AC50 [4]: > 10 µM

O=C(CCCN1CCC(n2c(O)nc3ccccc32)CC1)c1ccc(F)cc1 [BENPERIDOL]
AC50 [1]: > 30 µM

COc1cc(OC)c(C(=O)CCCN2CCCC2)c(OC)c1 [BUFLOMEDIL]
AC50 (Androgen receptor [5]): > 30 µM

CC1(C)C(C=C(Cl)Cl)C1C(=O)OCc1cccc(Oc2ccccc2)c1 (centres undefined) [PERMETHRIN]
AC50 (Androgen receptor [6]): > 30 µM
AC50 [4]: > 10 µM

CC1(C)C(/C=C/C=C/C=C/C=C2\N(CCCCS(=O)(=O)O)c3ccc4ccccc4c3C2(C)C)=[N+](CCCCS(=O)(=O)[O-])c2ccc3ccccc3c21 [INDOCYANINE GREEN ACID FORM]
AC50 (Androgen receptor [5]): 6.8 µM

Cc1cc2nc3c(=O)[nH]c(=O)nc-3n(C[C@H](O)[C@H](O)[C@H](O)COP(=O)(O)O)c2cc1C [RIBOFLAVIN 5'-PHOSPHATE]
AC50 (Androgen receptor [5]): > 3 µM

C=C[C@@]1(C)CC(=O)[C@]2(O)[C@@]3(C)[C@@H](O)CCC(C)(C)[C@@H]3[C@H](OC(=O)CCN(C)C)[C@H](OC(C)=O)[C@@]2(C)O1
AC50 (Androgen receptor [5]): > 30 µM

NS(=O)(=O)c1cc2c(cc1C(F)(F)F)NC(Cc1ccccc1)NS2(=O)=O (centres undefined) [BENDROFLUMETHIAZIDE]
AC50 (Androgen receptor [6]): > 10 µM

O=C1CN=C(c2ccccc2)c2cc(Cl)ccc2N1 [NORDAZEPAM]
AC50 [2]: > 30 µM
AC50 [3]: > 10 µM
AC50 (Progesterone receptor): > 30 µM
AC50 [4]: > 10 µM

Reference: ChEMBL document CHEMBL5291721, “A preclinical secondary pharmacology resource illuminates target-adverse drug reaction associations of marketed drugs” (Nat Commun, 2023)
